Measurements from PubChem BioAssay (NCI).
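The concentration for 50% growth inhibition is given as GI50. TGI: total growth inhibition.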

Tests used:
Assay in all cases: NCI tumour cell line growth inhibition, 384-well format
786-0 renal = tested on: 786-0 renal
IGROV1 ovarian = tested on: IGROV1 ovarian
SR leukemia = tested on: SR leukemia
A498 renal = tested on: A498 renal
MCF7 breast = tested on: MCF7 breast
NCI-H23 lung = tested on: NCI-H23 lung
UO-31 renal = tested on: UO-31 renal
SK-MEL-28 melanoma = tested on: SK-MEL-28 melanoma
HCT-116 colon = tested on: HCT-116 colon
MDA-MB-468 breast = tested on: MDA-MB-468 breast
MDA-MB-231 breast = tested on: MDA-MB-231 breast
SF-268 CNS = tested on: SF-268 CNS
OVCAR-4 ovarian = tested on: OVCAR-4 ovarian
A549 NSCLC = tested on: A549 NSCLC
SK-MEL-5 melanoma = tested on: SK-MEL-5 melanoma
NCI/ADR-RES ovarian = tested on: NCI/ADR-RES ovarian
UACC-62 melanoma = tested on: UACC-62 melanoma
COLO 205 colon = tested on: COLO 205 colon
ACHN renal = tested on: ACHN renal
HOP-62 NSCLC = tested on: HOP-62 NSCLC
SW-620 colon = tested on: SW-620 colon
BT-549 breast = tested on: BT-549 breast
TK-10 renal = tested on: TK-10 renal
UACC-257 melanoma = tested on: UACC-257 melanoma
SF-295 CNS = tested on: SF-295 CNS
MOLT-4 leukemia = tested on: MOLT-4 leukemia
HCT-15 colon = tested on: HCT-15 colon
HCC-2998 colon = tested on: HCC-2998 colon
OVCAR-8 ovarian = tested on: OVCAR-8 ovarian
K-562 leukemia = tested on: K-562 leukemia
SN12C renal = tested on: SN12C renal
U251 glioblastoma = tested on: U251 glioblastoma
RXF 393 renal = tested on: RXF 393 renal
M14 melanoma = tested on: M14 melanoma
MALME-3M melanoma = tested on: MALME-3M melanoma
CAKI-1 renal = tested on: CAKI-1 renal
SK-MEL-2 melanoma = tested on: SK-MEL-2 melanoma
HOP-92 NSCLC = tested on: HOP-92 NSCLC
OVCAR-5 ovarian = tested on: OVCAR-5 ovarian
SF-539 CNS = tested on: SF-539 CNS
NCI-H522 lung = tested on: NCI-H522 lung
NCI-H460 NSCLC = tested on: NCI-H460 NSCLC
NCI-H226 lung = tested on: NCI-H226 lung
OVCAR-3 ovarian = tested on: OVCAR-3 ovarian
MDA-MB-435 melanoma = tested on: MDA-MB-435 melanoma
CCRF-CEM leukemia = tested on: CCRF-CEM leukemia
EKVX NSCLC = tested on: EKVX NSCLC
SNB-75 CNS = tested on: SNB-75 CNS
NCI-H322M lung = tested on: NCI-H322M lung
SNB-19 CNS = tested on: SNB-19 CNS
DU-145 prostate = tested on: DU-145 prostate
SK-OV-3 ovarian = tested on: SK-OV-3 ovarian
HT29 colon = tested on: HT29 colon
RPMI-8226 leukemia = tested on: RPMI-8226 leukemia
T-47D breast = tested on: T-47D breast
PC-3 prostate = tested on: PC-3 prostate
KM12 colon = tested on: KM12 colon
HL-60(TB) leukemia = tested on: HL-60(TB) leukemia
LOX IMVI melanoma = tested on: LOX IMVI melanoma

## C[C@H]1CN(C2COC2)CCN1c1ccc(Nc2cc(-c3ccnc(N4CCn5c(cc6c5CC(C)(C)C6)C4=O)c3CO)cn(C)c2=O)nc1
786-0 renal
  GI50: 21.8 µM
  TGI: > 52.2 µM
IGROV1 ovarian
  GI50: 15.5 µM
  TGI: 33.9 µM
SR leukemia
  GI50: 5.31 µM
  TGI: 18.4 µM
A498 renal
  GI50: 14.3 µM
  TGI: 28.2 µM
MCF7 breast
  GI50: 14.1 µM
  TGI: > 44 µM
NCI-H23 lung
  GI50: 33.5 µM
  TGI: > 78.7 µM
UO-31 renal
  GI50: 16.2 µM
  TGI: 29.8 µM
SK-MEL-28 melanoma
  GI50: > 36.9 µM
  TGI: > 53 µM
HCT-116 colon
  GI50: 20.6 µM
  TGI: > 52.4 µM
MDA-MB-468 breast
  GI50: 14.5 µM
  TGI: 32.8 µM
MDA-MB-231 breast
  GI50: 6.46 µM
  TGI: 20.4 µM
SF-268 CNS
  GI50: 16.8 µM
  TGI: 35.4 µM
OVCAR-4 ovarian
  GI50: 13.3 µM
  TGI: > 51.6 µM
A549 NSCLC
  GI50: 18.5 µM
  TGI: > 54.3 µM
SK-MEL-5 melanoma
  GI50: 27.8 µM
  TGI: > 48.2 µM
NCI/ADR-RES ovarian
  GI50: 20.8 µM
  TGI: 55.9 µM
UACC-62 melanoma
  GI50: 14.6 µM
  TGI: > 54.6 µM
COLO 205 colon
  GI50: 19.8 µM
  TGI: 39.8 µM
ACHN renal
  GI50: 19.9 µM
  TGI: > 54.2 µM
HOP-62 NSCLC
  GI50: 17.8 µM
  TGI: > 48.1 µM
SW-620 colon
  GI50: 17.5 µM
  TGI: 38.1 µM
BT-549 breast
  GI50: 18.9 µM
  TGI: 40.9 µM
TK-10 renal
  GI50: 17 µM
  TGI: 32.8 µM
UACC-257 melanoma
  GI50: 16.4 µM
  TGI: 34.5 µM
SF-295 CNS
  GI50: 35 µM
  TGI: > 60.1 µM
MOLT-4 leukemia
  GI50: 0.731 µM
  TGI: 1.93 µM
HCT-15 colon
  GI50: 28.3 µM
  TGI: > 55.3 µM
HCC-2998 colon
  GI50: 3.62 µM
  TGI: 14.5 µM
OVCAR-8 ovarian
  GI50: 20.9 µM
  TGI: > 60.7 µM
K-562 leukemia
  GI50: 20.6 µM
  TGI: > 53.8 µM
SN12C renal
  GI50: 20.2 µM
  TGI: 44.5 µM
U251 glioblastoma
  GI50: 41.4 µM
  TGI: > 100 µM
RXF 393 renal
  GI50: 3.89 µM
  TGI: 26.8 µM
M14 melanoma
  GI50: 35 µM
  TGI: > 54.7 µM
MALME-3M melanoma
  GI50: 34.8 µM
  TGI: > 54 µM
CAKI-1 renal
  GI50: 17.8 µM
  TGI: > 48.1 µM
SK-MEL-2 melanoma
  GI50: 4.87 µM
  TGI: 24.5 µM
HOP-92 NSCLC
  GI50: 1.15 µM
  TGI: 6.86 µM
OVCAR-5 ovarian
  GI50: 24.1 µM
  TGI: > 67.1 µM
SF-539 CNS
  GI50: 25.5 µM
  TGI: > 53.4 µM
NCI-H522 lung
  GI50: 12.7 µM
  TGI: 37.2 µM
NCI-H460 NSCLC
  GI50: 37.7 µM
  TGI: > 100 µM
NCI-H226 lung
  GI50: 11.8 µM
  TGI: 28.4 µM
OVCAR-3 ovarian
  GI50: 10.7 µM
  TGI: 24.7 µM
MDA-MB-435 melanoma
  GI50: 26.2 µM
  TGI: > 55.9 µM
CCRF-CEM leukemia
  GI50: 3.36 µM
  TGI: 13.4 µM
EKVX NSCLC
  GI50: 76.9 µM
  TGI: > 100 µM
SNB-75 CNS
  GI50: 30.5 µM
  TGI: 81.6 µM
NCI-H322M lung
  GI50: 28.6 µM
  TGI: > 72.8 µM
SNB-19 CNS
  GI50: 29.8 µM
  TGI: > 85.4 µM
DU-145 prostate
  GI50: 30.8 µM
  TGI: 97.1 µM
SK-OV-3 ovarian
  GI50: 16.3 µM
  TGI: 35.7 µM
HT29 colon
  GI50: 20.5 µM
  TGI: > 50.1 µM
RPMI-8226 leukemia
  GI50: 0.86 µM
  TGI: 2.55 µM
T-47D breast
  GI50: 20.3 µM
  TGI: > 59.5 µM
PC-3 prostate
  GI50: 28.1 µM
  TGI: 90.1 µM
KM12 colon
  GI50: 26.2 µM
  TGI: > 58.9 µM
HL-60(TB) leukemia
  GI50: 12.9 µM
  TGI: 25.9 µM
LOX IMVI melanoma
  GI50: 17.7 µM
  TGI: 31.7 µM
